“And” between values parts separate entries of the source, which are not always exact repeats. Identical values can stand only once. Like-named read-outs stand apart in the source and are kept apart here. Blank lines part the entries; values can stand above or below the compound they belong to.
Legend:
DSS-induced colitis mice = experiment: In vivo efficacy study, DSS-induced colitis model; design: species or system male BALB/c mice; conditions: SASP 500 mg/kg; for Body weight (Fig. 6a) / DAI score (Fig. 6b): individual mice
[1] = Chemical stability in DMSO stock solution (HPLC purity); format: physicochemical; conditions: mean±SD
Text: compounds were formulated in the solubilizing vehicle (5% DMSO/30% PEG400/65% […]
safety to the mice in the test.
6. What was the sample dissolved in for the in vitro and in vivo experiments? Response: The solvent information for the in vitro and in vivo experiments has been added in the revised manuscript. […]
7. Was the stability of the different compounds assessed and compared to Fedratinib? This is generally a critical point in macrocyclic studies. […]
in DMSO stock solution. Test compounds were incubated at room temperature and 60 ℃, respectively, for 72 h, and their purities (%) were determined using HPLC equipped with a CORTECS C18 column (4.6*50 mm, 2.7 μm particle size) and a UV/VIS detector setting of λ=210 nm. All co mpounds were eluted with the two solvent systems ([…] as organic phase in Method I and CH3OH as organic phase in Method II) at a flow rate of 0.3 ml/min. Each experiment repeated for three times and the results are represented as mean±SD.
Ta b e l R 1 . Comparison of chemical stability of different compounds at room temperature and 60 ℃, respectively.

HEL cells = experiment: Cell proliferation assay (CCK-8), HEL cells; format: cell-based, human; conditions: for Inhibition (%): single wells, replicates 1 and 2
Protocol: (§1) The human erythroid leukemia (HEL 92.1.7) cells were purchased from the American Type Culture Collection (ATCC, TIB-180), and the human megakaryoblastic (SET2) cells were obtained from German Collection of Microorganisms and Cell Cultures (DSMZ, ACC 608). The anti-proliferative activities of compounds were evaluated using WST-8 cell counting kit-8 (Elabscience). HEL and SET-2 cells were seeded at 5000 cells/well in 70 μL RPMI-1640 medium (Hyclon) with 10% FBS (Gibco) to the 96-well plate and incubated overnight at 37 °C with 5% CO2. The compounds were serially diluted in RPMI-1640 medium, and cells were treated separately with 30 μL various concentrations of compounds for 72 h. The final DMSO concentration in the culture wells was 0.1%, which had no effect on the cell viability. Finally, 10 μL of CCK-8 solution was added into the wells. 4 h later, the absorbance values at 450 nm were recorded. IC50 values were determined using GraphPad Prism v8.3.0, and three parallel experiments were performed.

JAK2 = target: T1, JAK2 (Homo sapiens, UniProt O60674); experiment: JAK2 enzyme assay (Z'-LYTE kinase assay kit); format: biochemical
T1 construct: 0.05–0.42 ng JAK2, 2 μM peptide substrate (Tyr06)

SET-2 cells = experiment: Cell proliferation assay (CCK-8), SET-2 cells; format: cell-based, human; conditions: for Inhibition (%): single wells, replicates 1 and 2
Protocol: as §1

T1 sequence (O60674 whole entry): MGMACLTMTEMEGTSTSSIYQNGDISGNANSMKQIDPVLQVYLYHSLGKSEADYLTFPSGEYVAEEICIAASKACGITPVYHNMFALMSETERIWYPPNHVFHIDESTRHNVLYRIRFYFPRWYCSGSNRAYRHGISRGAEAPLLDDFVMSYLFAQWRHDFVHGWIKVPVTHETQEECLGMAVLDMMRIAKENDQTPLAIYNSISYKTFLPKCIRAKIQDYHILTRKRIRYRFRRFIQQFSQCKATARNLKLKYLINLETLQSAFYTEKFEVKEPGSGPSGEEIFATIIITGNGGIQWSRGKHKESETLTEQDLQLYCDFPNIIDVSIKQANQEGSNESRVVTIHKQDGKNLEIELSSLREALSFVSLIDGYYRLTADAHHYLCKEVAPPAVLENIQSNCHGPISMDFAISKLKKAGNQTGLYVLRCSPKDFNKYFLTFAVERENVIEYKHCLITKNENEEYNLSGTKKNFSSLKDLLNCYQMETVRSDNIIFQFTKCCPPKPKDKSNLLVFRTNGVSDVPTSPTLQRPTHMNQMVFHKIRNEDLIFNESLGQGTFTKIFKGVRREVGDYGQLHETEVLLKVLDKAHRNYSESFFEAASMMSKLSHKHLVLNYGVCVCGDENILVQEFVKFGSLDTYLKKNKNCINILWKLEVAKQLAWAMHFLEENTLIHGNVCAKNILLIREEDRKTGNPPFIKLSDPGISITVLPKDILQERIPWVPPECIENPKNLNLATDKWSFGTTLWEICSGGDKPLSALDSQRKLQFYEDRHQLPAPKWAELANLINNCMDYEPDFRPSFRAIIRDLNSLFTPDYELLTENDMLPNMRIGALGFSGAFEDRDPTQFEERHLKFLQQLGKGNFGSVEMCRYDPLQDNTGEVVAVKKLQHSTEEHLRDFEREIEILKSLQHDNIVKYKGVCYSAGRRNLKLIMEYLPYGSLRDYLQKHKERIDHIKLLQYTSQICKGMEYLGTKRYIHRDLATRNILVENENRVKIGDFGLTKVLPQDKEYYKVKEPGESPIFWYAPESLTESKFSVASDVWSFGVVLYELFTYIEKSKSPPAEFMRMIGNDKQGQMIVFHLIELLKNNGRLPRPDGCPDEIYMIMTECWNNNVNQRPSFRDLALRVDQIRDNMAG

SMILES: O=C(O)c1cc(/N=N/c2ccc(S(=O)(=O)Nc3ccccn3)cc2)ccc1O [Salicylazosulfapyridine]
Body weight (Fig. 6a) (DSS-induced colitis mice; day 0): 22.7 and 23.7 and 19.3 and 23.6 and 21.6 and 22.9 and 21.7 (2×)
DAI score (Fig. 6b) (DSS-induced colitis mice; day 0): 0
DAI score (Fig. 6b) (DSS-induced colitis mice; day 1): 0 (7×) and 1
Body weight (Fig. 6a) (DSS-induced colitis mice; day 1, in g (unit assumed)): 23.2 and 23.6 and 22.1 and 24.5 and 21.4 and 22.4 and 22 and 22.5
DAI score (Fig. 6b) (DSS-induced colitis mice; day 2): 0 (7×) and 1
Body weight (Fig. 6a) (DSS-induced colitis mice; day 2, in g (unit assumed)): 23.3
DAI score (Fig. 6b) (DSS-induced colitis mice; day 3): 1 (6×) and 0 (2×)
DAI score (Fig. 6b) (DSS-induced colitis mice; day 4): 4 and 2 and 1 (4×) and 3 and 0
Body weight (Fig. 6a) (DSS-induced colitis mice; day 4, in g (unit assumed)): 22.3 and 22.4 and 22.1 and 23.7 and 20.4 and 22.9 and 21.3 and 22.8
DAI score (Fig. 6b) (DSS-induced colitis mice; day 5): 4 and 2 (4×) and 1 (2×) and 6
Body weight (Fig. 6a) (DSS-induced colitis mice; day 5, in g (unit assumed)): 20.8 and 20.9 and 21.8 and 22.6 and 19.7 and 21.4 and 20.2 and 21.2
DAI score (Fig. 6b) (DSS-induced colitis mice; day 6): 5 (4×) and 7 and 3 and 1 (2×)
Body weight (Fig. 6a) (DSS-induced colitis mice; day 6, in g (unit assumed)): 19 and 19.1 and 21.1 and 21.3 and 18.6 and 19.3 and 19.2 and 20.2
DAI score (Fig. 6b) (DSS-induced colitis mice; day 7): 8 and 6 and 1 and 4 and 5 (2×) and 3 and 2
Body weight (Fig. 6a) (DSS-induced colitis mice; day 7, in g (unit assumed)): 16.8 and 17.9 and 20.5 and 20.7 and 18.1 and 17.6 and 17 and 18.6
DAI score (Fig. 6b) (DSS-induced colitis mice; day 8): 2 (2×) and 5 and 1 (3×) and 0 (2×)
Body weight (Fig. 6a) (DSS-induced colitis mice; day 8, in g (unit assumed)): 16.9 and 16.6 and 19.6 and 19.9 and 16.5 and 17.3 and 18.4 and 19.2
Body weight (Fig. 6a) (DSS-induced colitis mice; day 9): 18 (2×) and 17.2 and 19.6 and 20.6 and 15.7 and 19.4 and 20.8
DAI score (Fig. 6b) (DSS-induced colitis mice; day 9): 0 (7×) and 1
DAI score (Fig. 6b) (DSS-induced colitis mice; day 10): 2 (4×) and 1 (2×) and 3 and 0
Body weight (Fig. 6a) (DSS-induced colitis mice; day 10, in g (unit assumed)): 17.1 and 16.7 and 19.2 and 21.8 and 17.6 and 20.2 and 22.1
DAI score (Fig. 6b) (DSS-induced colitis mice; day 11): 0 (5×) and 1 (2×)
Body weight (Fig. 6a) (DSS-induced colitis mice; day 11, in g (unit assumed)): 17.6 and 16.3 and 19.7 and 21.9 and 19.1 and 19.8 and 22.6
DAI score (Fig. 6b) (DSS-induced colitis mice; day 12): 0
Body weight (Fig. 6a) (DSS-induced colitis mice; day 12, in g (unit assumed)): 19 and 17.1 and 20.3 and 22.2 and 19.5 and 21.5 and 22.4
Body weight (Fig. 6a) (DSS-induced colitis mice; day 13, in g (unit assumed)): 18.8 and 17.7 and 20 and 23.6 and 20.2 and 21.5 and 22.6
Body weight (Fig. 6a) (DSS-induced colitis mice; day 14, in g (unit assumed)): 19.5 and 18.6 and 19.8 and 24.4 and 21 and 22.1 and 22.5
HE staining score (Fig. 6d) (DSS-induced colitis mice; individual colon tissues (n = 8)): 3 and 1 and 2

purity after incubation in DMSO stock solution ([1]; 60 ℃, 0 h): 99.59±0.13%
purity after incubation in DMSO stock solution ([1]; 60 ℃, 2 h): 99.60±0.06%
purity after incubation in DMSO stock solution ([1]; 60 ℃, 24 h): 100.00±0.00%
purity after incubation in DMSO stock solution ([1]; 60 ℃, 48 h): 99.61±0.01%
purity after incubation in DMSO stock solution ([1]; 60 ℃, 72 h): 99.43±0.09%
purity after incubation in DMSO stock solution ([1]; Room Temperature, 0 h): 99.65±0.05%
purity after incubation in DMSO stock solution ([1]; Room Temperature, 2 h): 99.65±0.05%
purity after incubation in DMSO stock solution ([1]; Room Temperature, 24 h): 100.00±0.00%
purity after incubation in DMSO stock solution ([1]; Room Temperature, 48 h): 99.99±0.01%
purity after incubation in DMSO stock solution ([1]; Room Temperature, 72 h): 99.50±0.06%
IC50 (JAK2; JAK2, 25 μM ATP, mean ± SD, n = 3, read-out: Enzyme Inhibitory Activity (IC50)): 0.364 µM
IC50 (JAK2; JAK2 enzyme, mean of 3 replicates, read-out: IC50/μM mean, enzyme inhibitory activity): 0.364 µM
IC50 (JAK2; JAK2 enzyme, mean ± SD of 3 replicates, read-out: IC50/μM mean ± SD, enzyme inhibitory activity): 0.364 ± 0.007 µM
IC50 (JAK2; JAK2 enzyme, single-replicate fits (replicates 1-3), read-out: IC50/μM (individual replicates), enzyme inhibitory activity): 0.366 µM and 0.356 µM and 0.37 µM
SMILES: Cc1cnc2nc1Nc1cccc(c1)C(=O)N(C)Cc1cc(ccc1OCCN1CCCC1)N2 [Compound 2]
Inhibition (%) (HEL cells; HEL cell lines, 0.0977 μM): 2.051% and -1.891% and 1.838% and 11.186% and -5.882% and -1.006%
Inhibition (%) (HEL cells; HEL cell lines, 0.1953 μM): 0.772% and 1.838% and 2.477% and 15.575% and -7.833% and -8.321%
Inhibition (%) (HEL cells; HEL cell lines, 0.3906 μM): 2.264% and 1.518% and 1.625% and 18.866% and -1.250% and -7.345%
Inhibition (%) (HEL cells; HEL cell lines, 0.7813 μM): 10.786% and 8.762% and 8.549% and 18.744% and 6.553% and -6.614%
Inhibition (%) (HEL cells; HEL cell lines, 1.5625 μM): 18.882% and 12.064% and 2.264% and 20.207% and 10.332% and -0.152%
Inhibition (%) (HEL cells; HEL cell lines, 3.1250 μM, 3.125 µM): 25.273% and 19.521% and 12.916% and 41.664% and 20.207% and 14.721%
Inhibition (%) (HEL cells; HEL cell lines, 6.2500 μM, 6.25 µM): 42.104% and 34.754% and 32.197% and 45.931% and 34.837% and 31.058%
Inhibition (%) (HEL cells; HEL cell lines, 12.5000 μM, 12.5 µM): 71.398% and 70.120% and 69.694% and 81.042% and 74.825% and 72.874%
IC50 (HEL cells; HEL cell lines, mean of 2 replicates, read-out: IC50/μM mean, cellular antiproliferative activity): 7.34 µM
IC50 (HEL cells; HEL cell lines, mean ± sd of 2 replicates, read-out: IC50/μM mean ± sd, cellular antiproliferative activity): 7.34 ± 0.44 µM
IC50 (HEL cells; HEL cell lines, single-replicate fits, read-out: IC50/μM (individual replicates), cellular antiproliferative activity): 7.03 µM and 7.65 µM
IC50 (HEL cells; HEL cells, 72 h, mean ± SD, read-out: Cellular Antiproliferative Activity (IC50) HEL): 7.34 ± 0.44 µM
Inhibition (%) (SET-2 cells; SET-2 cell lines, 0.0977 μM): 7.592% and 1.623% and 1.518% and -0.378% and 0.918% and 6.534%
Inhibition (%) (SET-2 cells; SET-2 cell lines, 0.1953 μM): 8.325% and -1.100% and -4.241% and -2.322% and 3.294% and 8.909%
Inhibition (%) (SET-2 cells; SET-2 cell lines, 0.3906 μM): 0.681% and -1.309% and -10.209% and -2.322% and 6.965% and 5.562%
Inhibition (%) (SET-2 cells; SET-2 cell lines, 0.7813 μM): -8.429% and 1.100% and -6.440% and -0.270% and 5.886% and 6.102%
Inhibition (%) (SET-2 cells; SET-2 cell lines, 1.5625 μM): -4.869% and -5.916% and -2.880% and 1.998% and 4.914% and -0.162%
Inhibition (%) (SET-2 cells; SET-2 cell lines, 3.1250 μM, 3.125 µM): 4.031% and -0.576% and -2.984% and 1.674% and 9.233% and -1.350%
Inhibition (%) (SET-2 cells; SET-2 cell lines, 6.2500 μM, 6.25 µM): 8.744% and 16.702% and 4.555% and 8.801% and 8.153% and 7.613%
Inhibition (%) (SET-2 cells; SET-2 cell lines, 12.5000 μM, 12.5 µM): 20.471% and 17.330% and 11.885% and 18.953% and 16.793% and 14.741%
IC50 (SET-2 cells; SET-2 cell lines, single-replicate fits, read-out: IC50/μM (individual replicates), cellular antiproliferative activity): > 25 µM
IC50 (SET-2 cells; SET-2 cells, 72 h, mean ± SD, read-out: Cellular Antiproliferative Activity (IC50) SET-2): > 25 µM
